Data from publication PMC10137938 (Foods, 2023).
Residues, ends and D or L forms follow the SMILES beside them.

Experiments:
[1] = target: ACE (Homo sapiens, UniProt P12821); assay: Assay of ACE inhibitory activity (HHL hydrolysis, HPLC of hippuric acid); format: biochemical; conditions: in vitro; substrate HHL, borate buffer, 37 °C, 5 min coincubation with HHL, 30 min reaction, HCl stop; 7 concentrations; HPLC C18 at 228 nm; GraphPad Prism 7.0
Experimental: IC50 refers to the semi-inhibitory concentration; here, the principle of in vitro IC50 determination of the potential ACE inhibitory peptide is that ACE can hydrolyse HHL into […] and dipeptide. HHL and tetrapeptide are competitive, and when ACE binds to the tetrapeptide, it will reduce the production of the product […]; the IC50 activity of the tetrapeptide is when it is reduced by half of the original concentration. The water bath temperature was controlled at 37 °C, and the initial mass concentration of each tetrapeptide was […]. The tetrapeptide was diluted with borate buffer solution into 7 concentration gradients, and coincubated with HHL buffer for 5 min. Then, the ACE solution was added to initiate the reaction, and the reaction was terminated by the addition of HCl after 30 min of system reaction. Afterwards, the reaction was analysed on a C18 column, with HPLC detection at 228 nm and an injection volume of 10 μL. The mobile phases were water and acetonitrile at 75% and 25%, respectively, with a flow rate of 1 mL/min, and isocratic elution for 7 min (acetonitrile and water containing 0.1% trifluoroacetic acid). ACE inhibition was calculated as ACE inhibition = ((b − c) − (a − c))/(b − c) × 100% (a: peak area of hippuric acid in the experimental group; b: peak area of hippuric acid in the blank group; c: peak area of hippuric acid in the control group), and the inhibition rate was converted into IC50 values by the software graphpad prism 7.0.

[2] = target: Angiotensin-converting enzyme (ACE) (UniProt P12821)
Chain of Angiotensin-converting enzyme (ACE) (P12821 30-1306): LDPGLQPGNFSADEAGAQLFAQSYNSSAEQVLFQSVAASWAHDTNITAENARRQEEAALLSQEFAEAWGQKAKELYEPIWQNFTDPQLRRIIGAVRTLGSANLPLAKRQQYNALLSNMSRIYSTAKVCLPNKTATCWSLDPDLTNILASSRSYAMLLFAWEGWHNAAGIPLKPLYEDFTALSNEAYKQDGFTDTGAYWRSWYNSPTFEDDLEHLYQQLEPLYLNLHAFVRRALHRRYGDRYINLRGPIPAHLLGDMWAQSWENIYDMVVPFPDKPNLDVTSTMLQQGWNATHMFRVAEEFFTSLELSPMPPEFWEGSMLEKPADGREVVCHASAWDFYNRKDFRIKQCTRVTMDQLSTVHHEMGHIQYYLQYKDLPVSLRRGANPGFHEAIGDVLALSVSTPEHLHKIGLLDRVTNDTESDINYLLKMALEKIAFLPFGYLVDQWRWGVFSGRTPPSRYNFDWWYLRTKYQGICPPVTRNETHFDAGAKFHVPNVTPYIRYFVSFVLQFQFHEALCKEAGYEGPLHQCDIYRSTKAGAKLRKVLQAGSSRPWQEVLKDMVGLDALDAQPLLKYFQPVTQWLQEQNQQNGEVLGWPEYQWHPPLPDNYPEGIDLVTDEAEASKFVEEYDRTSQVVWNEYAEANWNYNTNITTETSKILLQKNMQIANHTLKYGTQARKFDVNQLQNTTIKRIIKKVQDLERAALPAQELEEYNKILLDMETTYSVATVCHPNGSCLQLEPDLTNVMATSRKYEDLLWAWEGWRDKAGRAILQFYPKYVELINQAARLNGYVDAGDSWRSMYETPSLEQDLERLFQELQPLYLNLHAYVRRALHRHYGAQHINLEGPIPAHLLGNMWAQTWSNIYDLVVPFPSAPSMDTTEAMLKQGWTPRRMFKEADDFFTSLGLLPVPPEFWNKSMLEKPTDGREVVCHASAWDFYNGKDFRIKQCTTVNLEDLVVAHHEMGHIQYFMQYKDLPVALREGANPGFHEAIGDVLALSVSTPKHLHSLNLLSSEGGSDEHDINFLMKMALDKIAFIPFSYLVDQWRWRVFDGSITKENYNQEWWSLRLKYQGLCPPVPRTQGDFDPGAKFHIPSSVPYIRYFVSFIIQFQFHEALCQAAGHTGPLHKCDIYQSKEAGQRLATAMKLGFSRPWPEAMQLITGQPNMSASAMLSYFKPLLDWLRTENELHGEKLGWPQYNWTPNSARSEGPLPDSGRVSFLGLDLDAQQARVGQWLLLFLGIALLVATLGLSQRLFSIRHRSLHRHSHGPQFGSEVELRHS

Chain of ACE (P12821 30-1306, species assumed): as the sequence (P12821 30-1306) above

IC50 [1] [µM] | IC50 of inhibition of ACE activity (hydrolysis of HHL to hippuric acid, HPLC at 228 nm, 37 °C) [2] [µM] | Molecule
 | 31.8 | tetrapeptide WFRV
 | 115 | tetrapeptide RRYQ
 | 26.4 | WWNW [tetrapeptide WWNW]
 | 29.6 | WRQF [tetrapeptide WRQF]
 | 141 | WRFF [tetrapeptide WRFF]
 | 28.5 | WWTY [tetrapeptide WWTY]
 | 148 | WFSW [tetrapeptide WFSW]
 | 129 | RWWD [tetrapeptide RWWD]
 | 20 | YYWK [tetrapeptide YYWK]
 | 36.8 | WWDW [tetrapeptide WWDW]

More lines, now with the values behind:

Molecule | IC50 [1] [µM] | IC50 of inhibition of ACE activity (hydrolysis of HHL to hippuric acid, HPLC at 228 nm, 37 °C) [2] [µM]
NC(=O)C[C@H](NC(=O)[C@H](Cc1c[nH]c2ccccc12)NC(=O)[C@@H](N)Cc1c[nH]c2ccccc12)C(=O)N[C@@H](Cc1c[nH]c2ccccc12)C(=O)O [WWNW] (H-WWNW-OH) | 26.4 ± 3.81 | 
N=C(N)NCCC[C@H](NC(=O)[C@@H](N)Cc1c[nH]c2ccccc12)C(=O)N[C@@H](Cc1ccccc1)C(=O)N[C@@H](Cc1ccccc1)C(=O)O [WRFF] (H-WRFF-OH) | 141 ± 3.9 | 
N=C(N)NCCC[C@H](NC(=O)[C@@H](N)Cc1c[nH]c2ccccc12)C(=O)N[C@@H](CCC(N)=O)C(=O)N[C@@H](Cc1ccccc1)C(=O)O [WRQF] (H-WRQF-OH) | 29.6 ± 6.75 | 
CC(C)[C@H](NC(=O)[C@H](CCCNC(=N)N)NC(=O)[C@H](Cc1ccccc1)NC(=O)[C@@H](N)Cc1c[nH]c2ccccc12)C(=O)O [WFRV] (H-WFRV-OH) | 31.8 ± 0.83 | 
NCCCC[C@H](NC(=O)[C@H](Cc1c[nH]c2ccccc12)NC(=O)[C@H](Cc1ccc(O)cc1)NC(=O)[C@@H](N)Cc1ccc(O)cc1)C(=O)O [YYWK] (H-YYWK-OH) | 20 ± 8.19 | 
C[C@@H](O)[C@H](NC(=O)[C@H](Cc1c[nH]c2ccccc12)NC(=O)[C@@H](N)Cc1c[nH]c2ccccc12)C(=O)N[C@@H](Cc1ccc(O)cc1)C(=O)O [WWTY] (H-WWTY-OH) | 28.5 ± 0.99 | 
N[C@@H](CO)C(=O)NCC(=O)NCC(=O)NCC(=O)O [SGGG] (H-SGGG-OH) | > 5000 | 
N[C@@H](Cc1c[nH]c2ccccc12)C(=O)N[C@@H](Cc1ccccc1)C(=O)N[C@@H](CO)C(=O)N[C@@H](Cc1c[nH]c2ccccc12)C(=O)O [WFSW] (H-WFSW-OH) | 148 ± 14.3 | 
N[C@@H](Cc1c[nH]c2ccccc12)C(=O)N[C@@H](Cc1c[nH]c2ccccc12)C(=O)N[C@@H](CC(=O)O)C(=O)N[C@@H](Cc1c[nH]c2ccccc12)C(=O)O [WWDW] (H-WWDW-OH) | 36.8 ± 1.32 | 
N=C(N)NCCC[C@H](N)C(=O)N[C@@H](Cc1c[nH]c2ccccc12)C(=O)N[C@@H](Cc1c[nH]c2ccccc12)C(=O)N[C@@H](CC(=O)O)C(=O)O [RWWD] (H-RWWD-OH) | 129 ± 8.32 | 
N=C(N)NCCC[C@H](NC(=O)[C@@H](N)CCCNC(=N)N)C(=O)N[C@@H](Cc1ccc(O)cc1)C(=O)N[C@@H](CCC(N)=O)C(=O)O [RRYQ] (H-RRYQ-OH) | 115 ± 6.15 | 
NCC(=O)NCC(=O)N[C@@H](CO)C(=O)NCC(=O)O [GGSG] (H-GGSG-OH) | > 5000 | 
